# Data: PMC12122756, “Versatile biocatalyst: lipase from Streptomyces gobitricini for ester synthesis and detergent innovation” (Frontiers in Bioengineering and Biotechnology, 2025)
# Where two headings read alike, the source gives them in different places.
# System: T1, LipS.g
# T1 construct: native extracellular enzyme purified from culture supernatant (heat, ammonium sulfate, Sephadex S-200); about 50 kDa SDS-PAGE, 53,262 Da MALDI-TOF
# Test: pH-stat titrimetry, Lineweaver-Burk
# Type: biochemical, Streptomyces gobitricini
# Conditions: pH 9.0, 50°C, triglyceride emulsion, apparent Km
# Excerpt: pH-stat titrimetry, Lineweaver-Burk on LipS.g
structure (smiles),measurement,setting,value
"CCCCCCCC(=O)OCC(COC(=O)CCCCCCC)OC(=O)CCCCCCC [TC8, trioctanoin]",Km,read-out: TC8,13.22 ± 0.106 mM
"CCCC(=O)OCC(COC(=O)CCC)OC(=O)CCC [TC4, Tributyrin]",Km,read-out: Lipase activity (%) / TC4,26.7 ± 0.063 mM
"CCCCCCCC/C=C\CCCCCCCC(=O)OCC(COC(=O)CCCCCCC/C=C\CCCCCCCC)OC(=O)CCCCCCC/C=C\CCCCCCCC [TC18, triolein]",Km,read-out: TC18,6.45 ± 0.289 mM
